In patent US20100099634A1, “MACROLIDE COMPOUNDS ENDOWED WITH ANTIINFLAMMATORY ACTIVITY” (Zambon S.p.A, priority 2006, published 2010):
pIC50: −log10 of the molar value.

Experiments:
[1] = system: oedema in mouse ear induced with PMA (phorbol myristate acetate); assay: Acute contact dermatitis: TPA-induced ear oedema in mice; type: in vivo; details: CD1 mice, 500 μg/ear topical in TPDS 30 minutes before 0.01% TPA, ear weight six hours later, vs TPA alone
Method: The antiinflammatory activity was evaluated by means of inhibition of the oedema in mouse ear induced with PMA (phorbol myristate acetate). A) Acute Contact Dermatitis Groups of 5 CD1 mice (18-24 g) were used. All the macrolide derivatives were dissolved in Trans-phase Delivery System (TPDS), a carrier containing 10% benzyl alcohol, 40% acetone and 50% isopropanol. 15 microlitres of the compounds (500 μg/ear), dissolved in TPDS, were applied topically to the inner surface of an ear; 30 minutes later, 12 microlitres of a solution of tetradecanoylphorbol acetate (TPA) at a concentration of 0.01% dissolved in acetone were applied to the same area. Six hours later, the animals were sacrificed by inhalation of CO2. The degree of oedema was calculated by subtracting the weight of a specified section of the untreated ear from that of the contralateral treated ear. To determine the degree of remission of the oedema, the weight difference of the groups treated with TPA+macrolides was then compared with the groups treated with TPA alone. The activity of the macrolides was measured by using the modified method of Zunic et al. (1998): MDL (Lysyl) GDP, a non-toxic muramyl dipeptide derivative inhibits cytokine production by activated macrophages and protects mice from phorbol ester- and oxazolone-induced inflammation (J. Invest. Dermatol., 111(1), 77-82).

[2] = system: Escherichia coli (ATCC 25922); assay: Antibiotic activity by turbidimetric assay of bacterial growth; type: cell-based; details: for IC20: concentration that inhibits growth of E. coli ATCC 25922 by 20%; for IC20 / pIC50 / IC80: maximum test concentration 100 μM, mean of at least three incubation times; for pIC50: concentration that inhibits growth of E. coli ATCC 25922 by 50%; for IC80: concentration that inhibits growth of E. coli ATCC 25922 by 80%; for activity towards bacterial growth (in words): turbidimetric assay, strains sensitive to erythromycin and telithromycin

| SMILES | pIC50 [2] | Oedema (% inhibition) [1] [%] | IC20 [2] [µM] | IC80 [2] [µM] | IC20 ([2]; Escherichia coli, ATCC25922) [µM] | pIC50 ([2]; Escherichia coli, ATCC25922) | IC80 ([2]; Escherichia coli, ATCC25922) [µM] | activity towards bacterial growth (in words) [2] |
| --- | --- | --- | --- | --- | --- | --- | --- | --- |
| CC[C@H]1OC(=O)[C@H](C)[C@@H](O[C@H]2C[C@@](C)(OC)[C@@H](O)[C@H](C)O2)[C@H](C)[C@@H](O[C@@H]2O[C@H](C)C[C@H](N(C)C)[C@H]2O)[C@](C)(O)C[C@@H](C)CN(C)[C@H](C)[C@@H](O)[C@]1(C)O [Azithromycin] | – | 40 | – | – | – | – | – | – |
| CCC1OC(=O)C(C)C(=O)C(C)C(OC2OC(C)CC(N(C)C(C)=O)C2O)C(C)(OC)CC(C)C(=O)C(C)C2N(CCCCn3cnc(-c4cccnc4)c3)C(=O)OC12C (stereo not shown) [Compound 1, 3′-demethyl-3′-acetyltelithromycin] | < 4.00 | 81.7 | > 100 | > 100 | – | – | – | – |
| CC[C@H]1OC(=O)[C@H](C)C(=O)[C@H](C)[C@@H](O[C@@H]2O[C@H](C)C[C@H](N(C)C(=O)c3ccccc3)[C@H]2O)[C@](C)(OC)C[C@@H](C)C(=O)[C@H](C)[C@H]2N(CCCCn3cnc(-c4cccnc4)c3)C(=O)O[C@]12C [Compound 2, 3′-demethyl-3′-benzoyltelithromycin] | < 4.00 | 81.8 | > 100 | > 100 | – | – | – | – |
| CC[C@H]1OC(=O)[C@H](C)[C@@H](O[C@H]2C[C@@](C)(OC)[C@@H](O)[C@H](C)O2)[C@H](C)[C@@H](O[C@@H]2O[C@H](C)C[C@H](N(C)C)[C@H]2O)[C@](C)(O)C[C@@H](C)C(=O)[C@H](C)[C@@H](O)[C@]1(C)O [Erythromycin] | – | 42 | – | – | 3 | 5.11 | 24.3 | substantial inhibition of the bacterial development |
| CC[C@H]1OC(=O)[C@H](C)C(=O)[C@H](C)[C@@H](O[C@@H]2O[C@H](C)C[C@H](N(C)C)[C@H]2O)[C@](C)(OC)C[C@@H](C)C(=O)[C@H](C)[C@H]2N(CCCCn3cnc(-c4cccnc4)c3)C(=O)O[C@]12C [Telithromycin] | – | 79.7 | – | – | 2.7 | 5.24 | 14.9 | substantial inhibition of the bacterial development |
